Experimental findings from patent US11725012B2, “Imidazo[1,5-a]pyrazine derivatives as PI3K δ inhibitors” (priority 2016, dated 2023) are described below.

The target in one data set is PI3K (p110γ) (Homo sapiens, UniProt P48736). The data set can be described thus: PI3Kγ ADP-Glo kinase assay. The format is biochemical. As to conditions: PI3Kγ Enzyme activity IC50. On the technique in general: ADP-Glo turns the ADP formed in a reaction into a luminescent signal.
The nature of data set [1]: Pharmacokinetic properties in Sprague-Dawley rats after IV and PO administration. The format is in vivo. As to conditions: male, plasma, rat; for Vd: read-out: VdSS. On the procedure:
III. Pharmacokinetic Properties of Compounds in Sprague-Dawley Rats after Intravenous (IV) and Oral Administrations (PO)
Dose Formulation Preparation The injection dosing solution was prepared as follows: 1.0 mg of a test compound was weighted and dissolved in 0.32 mL of dimenthyl acetamide (DMA). The solution was then further diluted by 0.36 mL of ethanol and 0.32 mL of propylene glycol. The final concentration of the test compound was 1.0 mg·mL^−1.
The oral dosing solution was prepared as follows: 5.0 mg of a test compound was weighed and dispersed in […] of 0.5% methyl cellulose (MC). The final concentration of the test compound is 1 mg·mL^−1.
The animals were housed in solid bottom polypropylene cages with sterilized bedding and receive sterilized diet and sterilized water. The room was controlled and monitored for humidity (targeted mean range 40% to 70%) and temperature (targeted mean range 18° C. to 26° C.) with 10 to 20 air changes/hour. The light cycle was maintained at 12-h light and 12-h dark, Only animals that appeared to be healthy were selected for this study based on overall health, body weight, or other relevant information.
The male Sprague-Dawley rats were fasted overnight with free access to drinking water prior to treatment. On day 1, the animals were weighed and actual dose volume for each animal was calculated using the formula below: Dose Volume (mL)=[Nominal Dose (mg·kg^−1)/Dose Concentration (mg·mL^−1)]×Animal Body Weight (kg) (1)
Three rats were given a single IV dose of 1 mg·kg^−1 via tail vein injection and other three rats were given a single oral dose of 5 mg·kg^−1. The dosing solutions were freshly prepared prior to dose administration. The actual body weights and actual volume injected were recorded accordingly. Four hours after dosing, the rats were allowed to intake food.
Blood samples ([…]) were collected at different times from the jugular vein catheter into EDTA-K2 coated tubes, Whole blood was processed by centrifugation at 3000 g for 10 min. Plasma samples were collected and kept at −80° C. freezer prior to analysis. The blood sampling time was recorded accordingly.
The dose samples of IV and PO were diluted with MeOH:H2O (4:1, v/v) to achieve the concentration of 2 μg·mL^−1, respectively. Then, 2.5 μL of the diluted samples were added with 47.5 μL blank plasma, and then were handled as the plasma sample procedure. An aliquot of 10 μL of the mixture was injected into the LC-MS/MS system.

Data set [2] can be described thus: Brain penetration in male C57BL/6 mice after oral administration. The data set is classed as in vivo. As to conditions: mouse; for Kp: male, C57BL/6, brain and plasma, PO 10 mg·kg^−1, read-out: BBB (Brain/Plasma Cone. Ratio). As for the experimental part: IV. Brain Penetration of Compounds in Male C57BL/6 Mice after Oral Administration Dose Formulation Preparation
Approximately 4 mg of a test compound was weighed and dispersed in 0.5% methyl cellulose (MC). After that, the whole mixture were vortexed until a solution or suspension was formed. The final concentration of the test compound was 1 mg·mL^−1. The concentration of test compound in dosing formulations was determined within 85% to 115% of nominal values.
The mice were housed in solid bottom polypropylene cages with sterilized bedding. The room was controlled and monitored for humidity (targeted mean range 40% to 70%) and temperature (targeted mean range 20° to 25° C.) with 10 to 20 air changes/hour. The room was on a 12-hour light/dark cycle except when interruptions were necessitated by study activities. The mice were supplied with sterilized diet and water. All animals were examined upon receipt and were acclimated for at least 3 days. Only animals that appeared to be healthy were selected for the study based on overall health, body weight, or other relevant data as appropriate.
All procedures performed on animals were in accordance with established guidelines and reviewed and approved by an independent institutional review board.
The mice were administrated with test compound at 10 mg·kg^−1 via oral gavage, respectively. The dosing formulations were freshly prepared. The actual body weights and actual volume administered were recorded accordingly.
Three mice were sacrificed under carbon dioxide for sample collection at 1, 2 and 4 hours post dose, respectively. Blood samples (˜0.2 mL) were collected via cardiac puncture into anticoagulant tubes (coated with EDTA-Ka). The tubes were gently inverted several times to ensure mixing. Whole blood was processed for plasma by centrifugation at 5,500 rpm for 10 min. The brain was collected immediately after euthanasia. The sample collection time was recorded accordingly. After the removal of excess water, the brain was weighed and homogenized with 5× water (w/v) in an ice bath. […]

In data set [3] the target is recombinant PI3K (p110α/p85α) (Homo sapiens, UniProt P42336). The data set can be described thus: PI3Kα ADP-Glo kinase assay. The data set is classed as biochemical. As to conditions: PI3Kα Enzyme activity IC50.
Data set [4] concerns the target recombinant PI3K (p110δ/p85α) (Homo sapiens, UniProt O00329). The data set can be described thus: PI3Kδ ADP-Glo kinase assay. The format is biochemical. As to conditions: PI3Kδ Enzyme activity IC50. Put shortly: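 ADP-Glo luminescence with recombinant p110δ/p85α and lipid kinase substrate. Compound serial dilutions preincubated 0.5 hr, ATP added, reaction 1 hr at room temperature, then ATP depletion and detection steps. IC50 from a four-parameter logistic fit of residual activity.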

For a further data set, the target named is PI3K (p110β/p85α) (Homo sapiens, UniProt P42338). The data set can be described thus: PI3Kβ ADP-Glo kinase assay. The data set is classed as biochemical. As to conditions: PI3Kβ Enzyme activity IC50.
Sequence of PI3K (p110β/p85α) (P42338 whole entry): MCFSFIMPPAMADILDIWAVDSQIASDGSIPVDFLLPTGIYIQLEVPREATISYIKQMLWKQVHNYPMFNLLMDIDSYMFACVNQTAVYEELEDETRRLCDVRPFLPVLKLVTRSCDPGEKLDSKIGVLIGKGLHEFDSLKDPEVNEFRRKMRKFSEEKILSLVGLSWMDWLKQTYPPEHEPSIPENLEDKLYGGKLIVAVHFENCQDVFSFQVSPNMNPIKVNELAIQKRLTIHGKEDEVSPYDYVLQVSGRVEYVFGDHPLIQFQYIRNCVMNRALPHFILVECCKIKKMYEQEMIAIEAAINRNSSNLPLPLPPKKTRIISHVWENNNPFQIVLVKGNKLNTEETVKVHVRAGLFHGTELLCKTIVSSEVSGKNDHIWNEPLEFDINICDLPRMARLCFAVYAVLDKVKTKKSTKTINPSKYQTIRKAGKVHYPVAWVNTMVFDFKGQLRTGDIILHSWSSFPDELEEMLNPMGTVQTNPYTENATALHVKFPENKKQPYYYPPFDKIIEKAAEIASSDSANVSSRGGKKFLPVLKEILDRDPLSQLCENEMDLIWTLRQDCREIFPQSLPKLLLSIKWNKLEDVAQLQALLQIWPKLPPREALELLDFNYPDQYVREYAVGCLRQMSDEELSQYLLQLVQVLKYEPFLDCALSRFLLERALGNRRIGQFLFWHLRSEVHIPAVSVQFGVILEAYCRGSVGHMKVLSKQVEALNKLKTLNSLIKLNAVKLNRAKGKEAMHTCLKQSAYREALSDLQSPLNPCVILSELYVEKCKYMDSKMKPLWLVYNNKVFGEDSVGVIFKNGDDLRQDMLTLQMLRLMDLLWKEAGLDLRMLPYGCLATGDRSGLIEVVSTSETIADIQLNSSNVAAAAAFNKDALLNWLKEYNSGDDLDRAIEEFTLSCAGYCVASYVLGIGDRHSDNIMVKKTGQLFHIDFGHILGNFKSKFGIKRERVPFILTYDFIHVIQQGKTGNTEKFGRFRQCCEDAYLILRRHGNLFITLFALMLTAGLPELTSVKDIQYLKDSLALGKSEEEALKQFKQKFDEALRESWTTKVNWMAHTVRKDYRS
Sequence of PI3K (p110β/p85α) (P27986 whole entry partner): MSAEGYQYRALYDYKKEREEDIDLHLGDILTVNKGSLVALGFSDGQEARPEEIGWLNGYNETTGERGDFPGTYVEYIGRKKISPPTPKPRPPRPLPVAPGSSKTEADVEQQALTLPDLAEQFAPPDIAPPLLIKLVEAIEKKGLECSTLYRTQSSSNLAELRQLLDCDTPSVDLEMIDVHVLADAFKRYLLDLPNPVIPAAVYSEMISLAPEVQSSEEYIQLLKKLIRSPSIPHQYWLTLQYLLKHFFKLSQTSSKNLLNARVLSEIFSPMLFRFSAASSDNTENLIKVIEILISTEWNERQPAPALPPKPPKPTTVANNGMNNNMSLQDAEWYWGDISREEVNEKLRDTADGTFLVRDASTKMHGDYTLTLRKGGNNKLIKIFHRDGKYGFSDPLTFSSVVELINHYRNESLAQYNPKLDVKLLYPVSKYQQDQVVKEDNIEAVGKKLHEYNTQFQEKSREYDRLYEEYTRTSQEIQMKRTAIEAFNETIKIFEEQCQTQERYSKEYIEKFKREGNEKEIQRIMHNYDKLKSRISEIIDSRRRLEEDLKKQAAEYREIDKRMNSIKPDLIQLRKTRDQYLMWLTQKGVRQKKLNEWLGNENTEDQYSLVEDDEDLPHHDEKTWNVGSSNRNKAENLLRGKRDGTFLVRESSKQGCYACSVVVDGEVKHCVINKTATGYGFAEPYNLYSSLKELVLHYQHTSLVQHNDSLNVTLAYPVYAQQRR

Sequence of PI3K (p110γ) (P48736 whole entry): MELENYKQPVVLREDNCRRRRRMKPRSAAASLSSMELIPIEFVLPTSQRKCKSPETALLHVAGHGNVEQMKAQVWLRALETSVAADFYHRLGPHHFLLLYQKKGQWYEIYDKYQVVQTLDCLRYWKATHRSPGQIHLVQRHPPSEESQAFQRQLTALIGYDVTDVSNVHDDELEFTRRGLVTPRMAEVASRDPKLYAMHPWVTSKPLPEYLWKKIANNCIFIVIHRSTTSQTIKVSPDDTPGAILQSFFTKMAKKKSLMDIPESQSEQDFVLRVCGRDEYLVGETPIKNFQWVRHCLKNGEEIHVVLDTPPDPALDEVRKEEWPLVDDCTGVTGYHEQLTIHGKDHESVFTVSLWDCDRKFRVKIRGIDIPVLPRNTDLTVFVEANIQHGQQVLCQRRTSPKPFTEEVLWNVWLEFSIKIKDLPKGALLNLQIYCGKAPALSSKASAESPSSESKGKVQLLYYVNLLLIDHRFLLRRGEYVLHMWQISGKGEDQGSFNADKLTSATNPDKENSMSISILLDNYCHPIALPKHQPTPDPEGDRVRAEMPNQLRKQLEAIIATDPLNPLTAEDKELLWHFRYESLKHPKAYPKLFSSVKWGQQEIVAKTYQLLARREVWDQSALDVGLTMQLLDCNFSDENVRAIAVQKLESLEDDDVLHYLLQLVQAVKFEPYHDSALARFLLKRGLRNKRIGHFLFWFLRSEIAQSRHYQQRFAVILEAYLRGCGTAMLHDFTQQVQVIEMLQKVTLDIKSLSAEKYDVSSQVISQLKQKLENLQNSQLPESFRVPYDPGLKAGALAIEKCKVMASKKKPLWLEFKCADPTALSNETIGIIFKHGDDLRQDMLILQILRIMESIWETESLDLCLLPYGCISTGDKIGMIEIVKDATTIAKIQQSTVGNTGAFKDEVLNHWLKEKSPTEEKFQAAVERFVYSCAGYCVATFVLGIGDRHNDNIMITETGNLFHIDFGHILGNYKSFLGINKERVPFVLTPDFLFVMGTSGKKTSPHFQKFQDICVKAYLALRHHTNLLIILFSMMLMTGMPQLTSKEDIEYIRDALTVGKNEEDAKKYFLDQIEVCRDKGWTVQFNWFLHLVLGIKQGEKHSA
Sequence of recombinant PI3K (p110α/p85α) (P42336 whole entry): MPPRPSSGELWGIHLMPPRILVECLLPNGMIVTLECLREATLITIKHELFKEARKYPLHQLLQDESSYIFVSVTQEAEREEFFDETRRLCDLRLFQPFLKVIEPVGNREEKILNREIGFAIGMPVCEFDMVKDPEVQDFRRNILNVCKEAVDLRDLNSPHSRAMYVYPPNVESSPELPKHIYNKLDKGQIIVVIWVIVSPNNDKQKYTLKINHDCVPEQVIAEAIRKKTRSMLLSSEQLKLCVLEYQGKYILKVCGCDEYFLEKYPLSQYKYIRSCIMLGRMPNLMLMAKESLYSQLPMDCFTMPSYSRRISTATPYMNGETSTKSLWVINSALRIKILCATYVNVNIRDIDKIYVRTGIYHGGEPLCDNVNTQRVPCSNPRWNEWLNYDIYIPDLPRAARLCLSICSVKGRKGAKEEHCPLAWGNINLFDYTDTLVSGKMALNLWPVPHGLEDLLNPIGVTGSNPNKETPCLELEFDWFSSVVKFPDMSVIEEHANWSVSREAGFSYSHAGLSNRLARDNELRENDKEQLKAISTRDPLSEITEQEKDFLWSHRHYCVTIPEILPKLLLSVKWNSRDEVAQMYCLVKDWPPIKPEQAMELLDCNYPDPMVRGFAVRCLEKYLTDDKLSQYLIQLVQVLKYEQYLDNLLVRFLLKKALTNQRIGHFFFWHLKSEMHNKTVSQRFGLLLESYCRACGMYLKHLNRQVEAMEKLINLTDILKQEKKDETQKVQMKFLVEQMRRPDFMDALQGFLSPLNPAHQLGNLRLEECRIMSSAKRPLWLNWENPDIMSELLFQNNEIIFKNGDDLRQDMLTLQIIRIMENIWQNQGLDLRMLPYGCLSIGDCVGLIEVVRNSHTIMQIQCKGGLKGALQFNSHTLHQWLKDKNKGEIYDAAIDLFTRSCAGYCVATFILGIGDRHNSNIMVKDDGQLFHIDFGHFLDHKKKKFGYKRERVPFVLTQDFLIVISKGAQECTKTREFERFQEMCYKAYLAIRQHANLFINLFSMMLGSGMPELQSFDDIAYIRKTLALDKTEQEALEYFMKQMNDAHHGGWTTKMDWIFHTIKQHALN
Sequence of recombinant PI3K (p110α/p85α) (P27986 whole entry partner): as the sequence (P27986 whole entry partner) above
Sequence of recombinant PI3K (p110δ/p85α) (O00329 whole entry): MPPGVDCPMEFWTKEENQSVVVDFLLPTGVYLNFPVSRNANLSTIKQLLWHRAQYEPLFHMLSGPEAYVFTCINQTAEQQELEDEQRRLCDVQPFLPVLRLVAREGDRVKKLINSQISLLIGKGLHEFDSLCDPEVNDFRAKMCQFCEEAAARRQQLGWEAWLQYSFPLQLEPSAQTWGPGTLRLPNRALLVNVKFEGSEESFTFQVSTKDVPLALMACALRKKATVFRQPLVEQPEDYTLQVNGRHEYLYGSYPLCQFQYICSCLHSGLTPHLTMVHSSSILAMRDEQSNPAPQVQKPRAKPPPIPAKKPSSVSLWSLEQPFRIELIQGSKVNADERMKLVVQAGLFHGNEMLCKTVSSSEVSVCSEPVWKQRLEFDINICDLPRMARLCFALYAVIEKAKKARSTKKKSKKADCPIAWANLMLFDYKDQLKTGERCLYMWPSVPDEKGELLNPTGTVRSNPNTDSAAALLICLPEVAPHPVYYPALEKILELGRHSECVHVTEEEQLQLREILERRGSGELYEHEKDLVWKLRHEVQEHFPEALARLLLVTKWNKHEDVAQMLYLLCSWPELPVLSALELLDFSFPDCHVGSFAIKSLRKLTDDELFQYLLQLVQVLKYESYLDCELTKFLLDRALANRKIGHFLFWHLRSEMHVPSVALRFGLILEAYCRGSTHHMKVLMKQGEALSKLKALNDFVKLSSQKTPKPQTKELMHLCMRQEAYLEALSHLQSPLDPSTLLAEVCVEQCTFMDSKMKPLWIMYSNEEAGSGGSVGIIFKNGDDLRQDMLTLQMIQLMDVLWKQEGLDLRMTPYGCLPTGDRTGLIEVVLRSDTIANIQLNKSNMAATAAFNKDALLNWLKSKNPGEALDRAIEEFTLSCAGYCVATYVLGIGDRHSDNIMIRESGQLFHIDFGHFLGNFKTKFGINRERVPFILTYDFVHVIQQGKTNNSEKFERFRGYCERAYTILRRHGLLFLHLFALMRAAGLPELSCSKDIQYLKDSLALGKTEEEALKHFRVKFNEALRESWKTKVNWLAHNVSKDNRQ
Sequence of recombinant PI3K (p110δ/p85α) (P27986 whole entry partner): as the sequence (P27986 whole entry partner) above

Regarding `CC(C)Oc1c([C@H](C)c2nc(Cl)c3c(N)nccn23)cc(Cl)c(F)c1-c1ccc(C(F)(F)F)nc1` [Compound 40A], half-maximal inhibition at PI3K (p110γ) (IC50) was put at 3800 nM. In data set [1] (1 mg/kg, IV (1 mpk)), the AUC(0-inf) (usually the area under the concentration-time curve extrapolated to infinity) is 768 ng·h/mL, the clearance was 22.2 mL/min/kg, the half-life (commonly how long it takes for the measured level to halve) is 9 h and the Vd was 14.8 L/kg. Also, in data set [1] (5 mg/kg, PO (5 mpk)), the AUC(0-inf) came to 1720 ng·h/mL; the peak concentration (Cmax) (usually the highest concentration seen after dosing) was found to be 179 ng/mL; the time to peak (Tmax) (as a rule, the time from dosing to the highest level) is 2.7 h; the bioavailability – broadly, the share of a dose that reaches the circulation, judged against a reference dose that is usually intravenous – stood at 51%. The half-life in data set [1] (5 mg/kg, PO (5 mpk)) is 6.6 h. Further, the Kp in data set [2] is 0.29. In addition, the “Brain/Plasma Conc. Ratio (in words)” value in data set [2] (PO) was “much better Brain/Plasma Conc, Ratio”. The half-maximal inhibitory concentration (IC50) (as a rule, the concentration that gives 50% inhibition) in data set [3] stood at 33000 nM. Further, the IC50 in data set [4] amounted to 1 nM. This compound returned an IC50 against PI3K (p110β/p85α) of 6800 nM.
In turn, `CC(C)Oc1c([C@H](C)c2nc(Cl)c3c(N)nccn23)cc(Cl)c(F)c1-c1ccc(C(=O)N(C)C)nc1` [Compound 16A] showed a half-inhibitory concentration (IC50) against PI3K (p110γ) of 440 nM. For the same compound, in data set [1] (1 mg/kg, IV (1 mpk)), the AUC(0-inf) was 1060 ng·h/mL, the clearance was 16 mL/min/kg, the half-life was 1.3 h and the Vd was determined as 1.8 L/kg. In data set [1] (5 mg/kg, PO (5 mpk)), the area under the curve AUC(0-inf) was 2190 ng·h/mL, the peak concentration (Cmax) was found to be 496 ng/mL, the Tmax is 1 h and the bioavailability was 41.1%. For the same compound, the half-life in data set [1] (5 mg/kg, PO (5 mpk)) is 1.9 h. Also, the Kp in data set [2] is 0.05. Besides, the IC50 in data set [3] worked out at 790 nM. Besides, in data set [4], the half-maximal inhibitory concentration (IC50) is 0.71 nM. Besides, at PI3K (p110β/p85α), the IC50 turned out to be 870 nM.
`CC(C)Oc1c(C(C)c2nc(Cl)c3c(N)nccn23)cc(Cl)c(F)c1C1CNC(=O)C1` (single isomer, unassigned) [Compound 48B, 4-(3-(1-(8-amino-1-chloroimidazo[1,5-a]pyrazin-3-yl)ethyl)-5-chloro-6-fluoro-2-isopropoxyphenyl)pyrrolidin-2-one] gave an IC50 at PI3K (p110γ) of 630 nM. Moreover, in data set [1] (1 mg/kg, IV (1 mpk)), the AUC(0-inf) stood at 425 ng·h/mL, the clearance is 39.2 mL/min/kg, the half-life is 1.4 h and the Vd was 4.3 L/kg. In addition, in data set [1] (5 mg/kg, PO (5 mpk)), the AUC(0-inf) was 1000 ng·h/mL, the highest concentration (Cmax) came to 254 ng/mL, the time of peak concentration (Tmax) turned out to be 0.8 h and the bioavailability stood at 47%. The half-life in data set [1] (5 mg/kg, PO (5 mpk)) is 2.1 h. Further, the IC50 in data set [3] was 1300 nM. In data set [4], the 50% inhibitory concentration (IC50) was determined as 0.31 nM. The same compound showed an IC50 at PI3K (p110β/p85α) of 1200 nM.
